Laboratory results reported in patent US20250302933A1, “ATTENUATED YET IMMUNOGENICALLY POTENTIATED TUMOR EXTRACELLULAR VESICLE COMPOSITIONS AND USES THEREOF” (KOREA INSTITUTE OF SCIENCE AND TECHNOLOGY, priority 2024, published 2025).

What was measured:
[1] = tested on: 4T1 cells; experiment: Cell viability assay (CCK-8) with verteporfin; type: cell-based, mouse; conditions: 24 hours
Description: (§1) Cells were seeded in a 96-well plate (30096; SPL Life Sciences, Pochon, South Korea) (5,000 cells/well) and treated with various doses of verteporfin in a serum-free medium for 24 hours. Cell viability was measured using Cell counting kit-8 (CCK-8) assay (CK04; Dojindo, Kumamoto, Japan), and the absorbance was measured at 450 nm using a microplate reader (SpectraMAX 340; Molecular Devices, San Jose, CA, USA).
(§2) To determine appropriate conditions for AI-TEV production, three types of cancer cells were treated with various doses of verteporfin in a serum-free medium and cell viability was assessed. E.G7-OVA cells were a derivative of EL4 mouse lymphoma cells carrying a complete copy of chicken ovalbumin (OVA) mRNA. Mouse oral cancer 2 (MOC2) cells represented an aggressive form of mouse oral squamous cell carcinoma, while 4T1 cells were triple-negative, highly invasive malignant mouse breast cancer cells. The lowest dose of verteporfin that induced effective cell death was 20 ng/ml for E.G7-OVA cells and 200 ng/ml for MOC2 and 4T1 cells and cell viability was approximately 80% for all cell types (FIGS. 2 and 3). The immunogenicity of the cell death was verified based on an increase in DAMPs after verteporfin treatment. […] Tumor cells were cultured in a serum-free medium for 24 hours with or without verteporfin to prepare AI-TEV or control TEV (C-TEV), respectively. […] TEVs expressed several EV markers such as tumor susceptibility genes 101 (TSG101), CD81, and Alix, but had no negative marker calnexin (FIGS. 12 and 13). Since verteporfin inhibited both autophagy and YAP, it was expected that there was a significant difference in a proteomic cargo between C-TEV and AI-TEV.

[2] = tested on: E.G7-OVA cells; experiment: Cell viability assay (CCK-8) with verteporfin; type: cell-based, mouse; conditions: 24 hours
Description: as §1, §2

[3] = tested on: MOC2 cells; experiment: Cell viability assay (CCK-8) with verteporfin; type: cell-based, mouse; conditions: 24 hours
Description: as §1, §2

[4] = tested on: cancer cells; experiment: Immunogenic cell death markers: calreticulin flow cytometry, HSP70/HMGB1 release Western blotting; type: cell-based, mouse
Description: (§3) Protein concentrations of the samples were quantified using a DCTM protein assay kit (5000111, Bio-Rad, Hercules, CA, USA). The samples were dissolved using radioimmunoprecipitation buffer (9806S; Cell Signaling Technology, Danvers, MA, USA) and subjected to SDS-PAGE. The samples were loaded onto a sodium dodecyl sulfate polyacrylamide gel, separated by gel electrophoresis, and transferred to a nitrocellulose membrane. The membrane was blocked with 5% skim milk and incubated overnight at 4° C. with primary antibodies against the following: Tsg101 (sc-22774; Santa Cruz, Dallas, TX, USA), YAP (sc99010), CD81 (sc-166029), ALIX (sc-53540), calnexin (ab22595; Abcam, Cambridge, United Kingdom), OVA (0220-1682; Bio-Rad), HMGB1 (ab18256; Abcam), HSP70 (ab181606; Abcam), or B-actin (4967S; Cell Signaling Technology). After washing five times (5 min each) with Tris-buffered saline containing 0.05% Tween-20 (TBS/T), the membrane was incubated with anti-mouse peroxidase (1:3000; A4416; Sigma-Aldrich) or anti-rabbit peroxidase (1:3000; A0545) secondary antibody at 20 to 25° C. for 1 hour. The membrane was then incubated with an ECL substrate (1705061, Bio-Rad) and visualized using a ChemiDoc™ Touch Imaging System (Bio-Rad).
Cells were seeded in a 6-well plate (30006; SPL Life Sciences, 5×10^5 cells/well) and treated with verteporfin in a serum-free medium for 3 hours. The cells were fixed with 0.25% paraformaldehyde for 5 minutes at 4° C. and then blocked with 3% bovine serum albumin for 15 minutes at 4° C. A calreticulin antibody (ab2907; Abcam) was added to the samples and incubated at 4° C. for 45 minutes. […] Calreticulin expression on the cell membrane was evaluated using flow cytometry gating of PI-negative cells.
To determine appropriate conditions for AI-TEV production, three types of cancer cells were treated with various doses of verteporfin in a serum-free medium and cell viability was assessed. […]

[5] = target: T1, YAP (Mus musculus, UniProt P46938); experiment: Western blotting of YAP after verteporfin treatment; type: cell-based; conditions: verteporfin 24 hours
T1 construct: endogenous in cells; host or cells: E.G7-OVA, MOC2 and 4T1 mouse cancer cells
T1 sequence (P46938 whole entry): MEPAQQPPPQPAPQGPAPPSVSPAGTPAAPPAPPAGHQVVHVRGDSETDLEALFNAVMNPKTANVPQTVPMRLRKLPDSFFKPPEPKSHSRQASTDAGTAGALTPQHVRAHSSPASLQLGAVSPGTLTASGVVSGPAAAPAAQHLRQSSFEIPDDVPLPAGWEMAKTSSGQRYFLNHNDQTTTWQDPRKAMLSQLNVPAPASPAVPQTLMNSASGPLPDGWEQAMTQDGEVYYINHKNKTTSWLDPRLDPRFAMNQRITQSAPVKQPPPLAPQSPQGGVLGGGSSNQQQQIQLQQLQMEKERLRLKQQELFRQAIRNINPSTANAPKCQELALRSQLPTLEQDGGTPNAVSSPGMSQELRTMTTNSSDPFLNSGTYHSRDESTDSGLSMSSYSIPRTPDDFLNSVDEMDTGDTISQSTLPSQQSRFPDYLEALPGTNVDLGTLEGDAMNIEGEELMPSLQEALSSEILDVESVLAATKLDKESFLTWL
Description: as §3
In addition, the migration ability of TEV-stimulated tumor cells was evaluated using a transwell migration assay. […] E.G7-OVA cells were also evaluated using the same protocol, but due to non-adherent characteristics, invasive cells were counted in the lower wells of a transwell chamber rather than on a membrane (FIGS. 18 and 19). […] Due to the aggressive and metastatic characteristics of 4T1 cells, a matrigel coating was added to the transwell membrane for the invasion assay. […] Finally, to confirm the attenuation of the tumor-promoting properties of AI-TEV in vivo, the efficacy as a therapeutic vaccine was evaluated in a mouse model. The therapeutic vaccine was another well-studied form of tumor vaccine designed to suppress tumor growth and induce long-term antitumor memory.

[6] = conditioned medium, 24 hours after verteporfin treatment

For Verteporfin, the cell viability ([1]; 200 ng/ml verteporfin) was “approximately 80%”, the “lowest dose of verteporfin that induced effective cell death” value (“lowest dose” below) ([1]; serum-free medium) was 200 ng/mL and the cell viability ([2]; 20 ng/ml verteporfin) was “approximately 80%”. The “lowest dose” value ([2]; serum-free medium) was 20 ng/mL, the cell viability ([3]; 200 ng/ml verteporfin) was “approximately 80%” and the “lowest dose” value ([3]; serum-free medium) was 200 ng/mL. For the same substance, the calreticulin expression ([4]; cancer cells after verteporfin treatment, cell surface) was “dose-dependent increase”, the “release of heat shock protein 70 (HSP70)” value [4, 6] was “dose-dependent increase” and the “release of high mobility group box 1 (HMGB1)” value [4, 6] was “dose-dependent increase”. For the same substance, the YAP protein ([5]; 4T1 cells) was “YAP inhibition”, the YAP protein content ([5]; E.G7-OVA cells) was “decreased” and the YAP protein content ([5]; MOC2 cells) was “decreased”.
